Drawing on ChEMBL document CHEMBL4483862, “Open-source discovery of chemical leads for next-generation chemoprotective antimalarials” (2018), this text covers IC50 and IC90 for 37 compounds.

The test system of the assay is Plasmodium berghei. Kind of assay: Luciferase/luciferin-expressing antifolate-resistant parasites were used to infect a culture of HepG2 cells that were pre-incubated with compounds. Infected hepatocytes emit light due to the luciferase reaction. Assay results are presented as the percent inhibition of light emission compared to control. […]. It is filed as functional. Conditions: sporozoite; for IC90: read-out: LUCIFERASE INFECTION ASSAY - IC90.

[1] abbreviates: read-out: LUCIFERASE INFECTION ASSAY - IC50.

Where only a bound is given, the exact number is not on record here.

Consider `CC1=C(C(=O)OCc2ccccc2)C(c2ccccc2OC(C)C)CC(=O)N1` (centres undefined), for which the IC90 is over 8.7 µM. Where the note is “FFLUC_HILL_SLOPE 12.1, FFLUC_R_SQUARED 0.679, read-out: LUCIFERASE INFECTION ASSAY - IC50”, the IC50 was over 8.7 µM.

`COc1cc(C(=O)c2c(N)c(C#N)cn3c2nc2ccccc23)cc(OC)c1OC`: the IC90 worked out at 1.04 µM. For the same compound, the IC50 (HEPG2TOX_HILL_SLOPE 1.34, 0.970, HEPG2TOX_R_SQUARED 0.842, 0.883, PBLUC_HILL_SLOPE 1.49, PBLUC_R_SQUARED 0.764, read-out: LUCIFERASE INFECTION ASSAY - IC50) turned out to be 0.237 µM.

As to `c1ccc(-c2cn3nc(NCc4cccs4)sc3n2)cc1`, the IC90 was over 10 µM. For the same compound, under “PBLUC_HILL_SLOPE 2.88, PBLUC_R_SQUARED 0.313, read-out: LUCIFERASE INFECTION ASSAY - IC50”, the IC50 was determined as 4.87 µM.

Take `CCOc1c(Br)cc(C2NCC(c3cccc(OC)c3OC)c3c2[nH]c2ccccc32)cc1OC` (centres undefined): the IC90 was over 10 µM. Under “FFLUC_HILL_SLOPE 3.42, FFLUC_R_SQUARED 0.537, read-out: LUCIFERASE INFECTION ASSAY - IC50”, the IC50 was over 10 µM.

On to `Cc1ccc(C(=O)C(/C=N/N)=N/Nc2cc(Cl)cc(Cl)c2)cc1`, for which the IC90 was over 9.45 µM. In addition, the IC50 under setting [1] is 9.09 µM.

`Cc1cccc(C)c1NC(=O)Nc1nc(C(N)Cc2ccc(C(F)(F)F)cc2)cs1` (centres undefined): the IC90 was over 7.6 µM. In addition, the IC50 (PBLUC_HILL_SLOPE 11.8, PBLUC_R_SQUARED 0.0609, read-out: LUCIFERASE INFECTION ASSAY - IC50) stood at 6.88 µM.

On to `COc1ccc(-c2nc(C(=O)N3c4ccccc4CC3C)cs2)cc1OC` (centres undefined), for which the IC90 was over 10 µM. In addition, the IC50 (HEPG2TOX_HILL_SLOPE 1.77, HEPG2TOX_R_SQUARED 0.837, PBLUC_HILL_SLOPE 1.16, PBLUC_R_SQUARED 0.492, read-out: LUCIFERASE INFECTION ASSAY - IC50) is 1.9 µM.

Turning to `Cc1nc2cc(Nc3nc(CN4CCOCC4)nc4scc(-c5ccccc5)c34)ccc2n1-c1ccccc1`, the IC90 is over 10 µM. The IC50 under setting [1] is over 10 µM.

For the compound `C/C(=N\Nc1nc2ccccc2o1)c1ccc2ccccc2c1O`, the IC90 is over 10 µM. Further, the IC50 (HEPG2TOX_HILL_SLOPE 7.42, HEPG2TOX_R_SQUARED 0.127, PBLUC_HILL_SLOPE 13.1, PBLUC_R_SQUARED 0.536, read-out: LUCIFERASE INFECTION ASSAY - IC50) stood at 8.85 µM.

Take `CCCc1ccc(C(=O)/C(C#N)=c2\s/c(=C\c3cccs3)c(=O)n2-c2cc(C)ccc2C)cc1`: the concentration for an effect of 90% (IC90) was over 10 µM. In addition, the concentration for half-maximal inhibition (IC50) (PBLUC_HILL_SLOPE 3.09, PBLUC_R_SQUARED 0.669, read-out: LUCIFERASE INFECTION ASSAY - IC50) was 6.42 µM.

`O=C(Nc1ccncc1)c1cc([N+](=O)[O-])ccc1Sc1ccccc1`: the 90% effect concentration (IC90) was over 9.39 µM. Where the note is “PBLUC_HILL_SLOPE 0.732, PBLUC_R_SQUARED 0.239, read-out: LUCIFERASE INFECTION ASSAY - IC50”, the IC50 is 3.82 µM.

Consider `C=CCn1c(-c2ccoc2C)nn(CN(C)Cc2nc3ccccc3s2)c1=S`, for which the IC90 was over 10 µM. In addition, the IC50 under setting [1] is over 10 µM.

On to `O=C(Nc1cccc(-n2cnnn2)c1)c1ccc(-c2ccccc2Cl)o1`, for which the IC90 was over 9.02 µM. Moreover, the IC50 (HEPG2TOX_HILL_SLOPE 8.29, HEPG2TOX_R_SQUARED 0.71, PBLUC_HILL_SLOPE 14.4, PBLUC_R_SQUARED 0.296, read-out: LUCIFERASE INFECTION ASSAY - IC50) turned out to be 8.92 µM.

On to `CC1=C(C(=O)OC(C)C)C(c2ccccc2)n2nc(-c3cccs3)nc2N1` (centres undefined), for which the IC90 was over 10 µM. The IC50 (HEPG2TOX_HILL_SLOPE 6.88, HEPG2TOX_R_SQUARED 0.357, read-out: LUCIFERASE INFECTION ASSAY - IC50) was over 10 µM.

For the compound `CN(C)c1ccccc1-c1cnc2sc(NC3CCC(O)CC3)nn12` (centres undefined), the IC90 is over 9.23 µM. Under setting [1], the half-maximal inhibitory concentration (IC50) amounted to 8.17 µM.

Consider `O=C(COc1cc(N2CCCC2=O)ccc1[N+](=O)[O-])NCc1ccco1`, for which the IC90 is over 10 µM. For the same compound, the half-inhibitory concentration (IC50) under setting [1] is over 10 µM.

Take `COc1ccccc1-c1cc(-c2cccc(OC(F)(F)F)c2)cnc1N`: the concentration for an effect of 90% (IC90) was over 9.16 µM. Moreover, under setting [1], the 50% inhibitory concentration (IC50) is over 9.16 µM.

For `CS(=O)(=O)Nc1cccc(-c2cn3c(-c4ccc(CO)cc4)cnc3cn2)c1`, the IC90 is 8.14 µM. Further, the IC50 (PBLUC_HILL_SLOPE 16.4, PBLUC_R_SQUARED 0.351, read-out: LUCIFERASE INFECTION ASSAY - IC50) is 7.12 µM.

Take `CC(=O)c1cccc(-c2cnc3ccc(-c4cncnc4)nn23)c1`: the IC90 was 3.69 µM. Further, the IC50 (HEPG2TOX_HILL_SLOPE 1.11, HEPG2TOX_R_SQUARED 0.828, PBLUC_HILL_SLOPE 6.15, PBLUC_R_SQUARED 0.481, read-out: LUCIFERASE INFECTION ASSAY - IC50) was determined as 2.58 µM.

Regarding `CCN1C(=O)N(CCCc2cccnc2)C(=O)C12CCN(Cc1ccc3c(c1)Cc1ccccc1-3)CC2`, the IC90 was 2.58 µM. The IC50 (HEPG2TOX_HILL_SLOPE 1.68, HEPG2TOX_R_SQUARED 0.934, PBLUC_HILL_SLOPE 11.7, PBLUC_R_SQUARED 0.742, read-out: LUCIFERASE INFECTION ASSAY - IC50) worked out at 2.14 µM.

Take `FC(F)(F)c1cccc(-c2ccc3ncc(-c4ccncc4)n3n2)c1`: the IC90 was 1.31 µM. Further, the IC50 (HEPG2TOX_HILL_SLOPE 8.22, HEPG2TOX_R_SQUARED 0.275, PBLUC_HILL_SLOPE 7.22, PBLUC_R_SQUARED 0.51, read-out: LUCIFERASE INFECTION ASSAY - IC50) worked out at 0.969 µM.

Consider `CN(CCOc1ccc(Br)cc1)C(=O)c1[nH]nc2ccccc12`, for which the IC90 is over 10 µM. For the same compound, the IC50 (PBLUC_HILL_SLOPE 4.37, PBLUC_R_SQUARED 0.302, read-out: LUCIFERASE INFECTION ASSAY - IC50) was determined as 6.76 µM.

Turning to `CCOC(=O)c1c(C)oc(NC(=O)CSc2nnc(-c3ccccc3)n2-c2ccc(C)c(C)c2)c1C#N`, the 90% effect concentration (IC90) was over 10 µM. In addition, the IC50 under setting [1] was over 10 µM.

In the case of `O=c1c2c3c(sc2nc(SCc2nc4ccc(Cl)cc4n2CCO)n1CC1CCCO1)CCC3` (centres undefined), the concentration for an effect of 90% (IC90) is over 10 µM. Moreover, under “FFLUC_HILL_SLOPE 13.3, FFLUC_R_SQUARED 0.41, read-out: LUCIFERASE INFECTION ASSAY - IC50”, the IC50 is over 10 µM.

`c1cncc(CCNc2nccn3c(-c4ccc5ccccc5c4)cnc23)c1`: the IC90 was 5.14 µM. Moreover, the IC50 (HEPG2TOX_HILL_SLOPE 2.6, HEPG2TOX_R_SQUARED 0.953, PBLUC_HILL_SLOPE 75.6, PBLUC_R_SQUARED 0.403, read-out: LUCIFERASE INFECTION ASSAY - IC50) amounted to 4.99 µM.

Consider `CCC(C)c1ccc(NC(=O)CN(Cc2ccccc2)S(=O)(=O)c2ccc(C)c(C)c2)cc1` (centres undefined), for which the concentration for an effect of 90% (IC90) was over 10 µM. Moreover, under setting [1], the IC50 was over 10 µM.

Consider `O=C1/C(=C/c2ccc(F)cc2)CCC/C1=C\c1ccc(F)cc1`, for which the IC90 was over 10.6 µM. For the same compound, under “HEPG2TOX_HILL_SLOPE 7.08, HEPG2TOX_R_SQUARED 0.955, read-out: LUCIFERASE INFECTION ASSAY - IC50”, the IC50 is over 10.6 µM.

Take `CSC1=C(C#N)C(=O)NC(c2c(Cl)cccc2Cl)S1` (centres undefined): the IC90 is over 9.96 µM. Also, the IC50 (FFLUC_HILL_SLOPE 9.34, FFLUC_R_SQUARED 0.0497, read-out: LUCIFERASE INFECTION ASSAY - IC50) was over 9.96 µM.

`COc1ccc(-c2cn(CC(=O)c3ccccc3)c3[n+]2-c2ccccc2CC3)cc1`: the IC90 is over 10 µM. In addition, the IC50 (HEPG2TOX_HILL_SLOPE 1.82, HEPG2TOX_R_SQUARED 0.932, PBLUC_HILL_SLOPE 2.71, PBLUC_R_SQUARED 0.363, read-out: LUCIFERASE INFECTION ASSAY - IC50) is 4.75 µM.

Take `CCN1C(=O)N(C2Cc3ccccc3C2)C(=O)C12CCN(Cc1c[nH]nc1-c1ccc(F)cc1)CC2`: the IC90 was over 6.77 µM. Further, under setting [1], the IC50 is 4.54 µM.

In the case of `Cc1sc2nc(-c3cccnc3)nc(N3CCN(C(=O)C4COc5ccccc5O4)CC3)c2c1C` (centres undefined), the IC90 is over 10 µM. Besides, the IC50 (PBLUC_HILL_SLOPE 15.9, PBLUC_R_SQUARED 0.0253, read-out: LUCIFERASE INFECTION ASSAY - IC50) came out at 9.35 µM.

Consider `COc1ccc(OC)c(NC(=O)Nc2ccc(OC(F)(F)F)cc2)c1`, for which the IC90 is over 9.26 µM. In addition, the IC50 (PBLUC_HILL_SLOPE 22.3, PBLUC_R_SQUARED 0.0229, read-out: LUCIFERASE INFECTION ASSAY - IC50) came to 9.07 µM.

For the compound `FC(F)(F)c1nc2ccccc2nc1-n1nccc1-c1ccc(Cl)cc1`, the IC90 was over 8.81 µM. In addition, the IC50 (FFLUC_HILL_SLOPE 16.3, FFLUC_R_SQUARED 0.637, HEPG2TOX_HILL_SLOPE 7.13, HEPG2TOX_R_SQUARED 0.448, PBLUC_HILL_SLOPE 3.24, PBLUC_R_SQUARED 0.732, read-out: LUCIFERASE INFECTION ASSAY - IC50) stood at 5.14 µM.

As for `C/C(=N\NC(=S)NC(C)(C)C)c1cc(Cl)cc(Cl)c1O`, the IC90 was over 9.87 µM. Where the note is “FFLUC_HILL_SLOPE 16.6, FFLUC_R_SQUARED 0.277, read-out: LUCIFERASE INFECTION ASSAY - IC50”, the half-maximal inhibitory concentration (IC50) was over 9.87 µM.

Take `CC1CN(C(=O)c2ccc(S(=O)(=O)Nc3ccccc3F)cc2)CC(C)O1` (centres undefined): the IC90 is 5.97 µM. Besides, for the setting “PBLUC_HILL_SLOPE 1.2, PBLUC_R_SQUARED 0.687, read-out: LUCIFERASE INFECTION ASSAY - IC50”, the IC50 worked out at 0.955 µM.

Consider `Cn1c(CNC(=O)c2cc(-c3ccccc3)c(N3CCOCC3)s2)nc2ccccc21`, for which the IC90 is over 10 µM. The IC50 under setting [1] is over 10 µM.

Regarding `COc1cccc(-c2nc3ccc(NC(=O)CC(C)(C)C)cn3n2)c1`, the IC90 was over 10 µM. In addition, the IC50 (PBLUC_HILL_SLOPE 0.895, PBLUC_R_SQUARED 0.614, read-out: LUCIFERASE INFECTION ASSAY - IC50) stood at 0.974 µM.

As a reminder, the IC50 is the concentration that inhibits the measured activity by half. The term IC90 denotes the concentration needed for an effect of 90%.
